Measured values reported in publication PMC5062083, “Development of a one-pot assay for screening and identification of Mur pathway inhibitors in Mycobacterium tuberculosis” (Scientific Reports, 2016).
Where two headings read alike, the source gives them in different places.

Columns and labels:
MurB = MurB (Mycobacterium tuberculosis, UniProt P9WJL9); experiment: inhibition of individual Mur enzyme: MurB; format: biochemical; conditions: for remaining activity at 100 µM: at 100 μM compound, vs 'no drug' control (5% DMSO), read-out: RA (residual activity), MurB
Description: To assay MurB activity, the MurA reaction after 30 mins of incubation was supplemented with 10 mM KCl, 0.2 mM NADPH and 60 nM of MurB enzyme in a total volume of 100 μl. The absorbance at 340 nm was monitored over 5 min to calculate the rate of NADPH oxidation. The control reaction contained all the components except MurB.
(§1) Tested compounds at various concentrations (5–100 μM) were pre-incubated with enzymes for 15 mins, followed by the addition of remaining constituents of the assay. The final reaction mixture was incubated for 30 mins at 37 °C. To assess specific inhibition of Mur ligases, each of the ligase was pre-incubated with inhibitors separately and then added to the one-pot reaction mixture. The net Pi released was calculated as described earlier. In the ‘no drug’ control reaction, the organic solvent (DMSO) used in dissolving inhibitory compounds was added at 5% concentration to the one-pot assay, while Isoniazid, a standard anti-TB drug with no known effect on Mur activity, was inculded as another control to ascertain the specificity of the tested inhibitors in the study.

MurA = MurA (Mycobacterium tuberculosis, UniProt P9WJM1); experiment: inhibition of individual Mur enzyme: MurA; format: biochemical; conditions: for remaining activity at 100 µM: at 100 μM compound, vs 'no drug' control (5% DMSO), read-out: RA (residual activity), MurA
Description: The reaction was performed in a micro-titer plate at 37 °C for 30 minutes and terminated by the addition of Pi Colorlock™ Assay reagent. Absorbance was measured at 630 nm and the amount of Pi released was calculated from the standard phosphate curve. […] The control reactions contained all the components except MurA. The net Pi was calculated by subtracting total Pi in the control reaction from the total Pi after the completion of the assay. To get a large assay window and to avoid saturation of Pi, optimization of assays were carried out at substrate concentrations so as not to exceed the assay signal beyond 2.0 absorbance units as recommended by the manufacturer of PiColorlock™ Assay kit.
as §1

MurE = MurE (Mycobacterium tuberculosis, UniProt P9WJL3); experiment: inhibition of individual Mur enzyme: MurE; format: biochemical
MurF = MurF (Mycobacterium tuberculosis, UniProt P9WJL1); experiment: inhibition of individual Mur enzyme: MurF; format: biochemical
Description: (§2) Each Mur ligase reaction was performed at 37 °C with an incubation period of 1 h. To measure the activity of MurC, the completed MurB reaction was supplemented with 1 mM L-Alanine, 10 mM MgCl2 and 1 mM ATP. MurD-F ligase activities were performed sequentially, supplementing the prior reaction with 1 mM each of the required substrate (D-Glutamate, meso-Diaminopimelic acid and D -Alanine-D-Alanine, respectively). The control reaction contained all the components except the enzyme that was being tested (e.g. the control reaction for MurC assay contained all the components except MurC). For MurD and MurF reaction, purified MBP at 1 μg concentration was added to the reaction mixture instead of the enzymes. Estimation of net Pi was done as previously described in the MurA assay.
as §1

MurD = MurD (Mycobacterium tuberculosis, UniProt P9WJL5); experiment: inhibition of individual Mur enzyme: MurD; format: biochemical; conditions: for remaining activity at 100 µM: at 100 μM compound, vs 'no drug' control (5% DMSO), read-out: RA (residual activity), MurD
Description: as §2, §1

MurE from E.coli = system: MurE from E.coli; design: method as in PMID 25851408; conditions: range stated jointly for MurE and MurF; cited from earlier work
MurC = MurC (Mycobacterium tuberculosis, UniProt P9WJL7); experiment: inhibition of individual Mur enzyme: MurC; format: biochemical; conditions: for remaining activity at 100 µM: at 100 μM compound, vs 'no drug' control (5% DMSO), read-out: RA (residual activity), MurC
Description: as §2, §1

[1] = system: Mur pathway (MurA-MurF) enzymes from Mtb; experiment: one-pot assay reconstructing the Mur pathway (Pi release), inhibitor studies; format: biochemical, Mycobacterium tuberculosis; conditions: for Percentage inhibition, one-pot assay: at 100 μM concentration of compound; for IC50: six compound concentrations 5-100 μM, 15 min pre-incubation, 30 min at 37 °C, 5% DMSO control
[2] = system: Mur pathway (MurA-MurF) enzymes from Mtb; experiment: ESI-MS analysis of one-pot assay with inhibitor; format: biochemical, Mycobacterium tuberculosis; conditions: Fig. S5
C=C(OP(=O)(O)O)C(=O)O = experiment: purified protein, by the assay type; conditions: pH 7.0; 37.0 °C

MurD, sequence (P9WJL5 whole entry): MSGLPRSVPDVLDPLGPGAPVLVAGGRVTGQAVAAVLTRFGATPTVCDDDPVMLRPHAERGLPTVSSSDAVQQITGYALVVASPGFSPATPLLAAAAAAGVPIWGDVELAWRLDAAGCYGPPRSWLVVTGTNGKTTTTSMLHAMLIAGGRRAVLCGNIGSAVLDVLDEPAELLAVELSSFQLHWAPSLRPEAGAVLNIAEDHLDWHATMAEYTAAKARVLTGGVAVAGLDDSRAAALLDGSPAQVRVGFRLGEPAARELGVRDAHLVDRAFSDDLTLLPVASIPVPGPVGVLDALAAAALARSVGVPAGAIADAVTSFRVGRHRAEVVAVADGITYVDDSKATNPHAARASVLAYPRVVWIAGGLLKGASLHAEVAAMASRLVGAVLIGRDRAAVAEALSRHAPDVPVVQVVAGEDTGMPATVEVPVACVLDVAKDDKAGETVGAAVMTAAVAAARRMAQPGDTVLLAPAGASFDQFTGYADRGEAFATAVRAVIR
MurF, sequence (P9WJL1 whole entry): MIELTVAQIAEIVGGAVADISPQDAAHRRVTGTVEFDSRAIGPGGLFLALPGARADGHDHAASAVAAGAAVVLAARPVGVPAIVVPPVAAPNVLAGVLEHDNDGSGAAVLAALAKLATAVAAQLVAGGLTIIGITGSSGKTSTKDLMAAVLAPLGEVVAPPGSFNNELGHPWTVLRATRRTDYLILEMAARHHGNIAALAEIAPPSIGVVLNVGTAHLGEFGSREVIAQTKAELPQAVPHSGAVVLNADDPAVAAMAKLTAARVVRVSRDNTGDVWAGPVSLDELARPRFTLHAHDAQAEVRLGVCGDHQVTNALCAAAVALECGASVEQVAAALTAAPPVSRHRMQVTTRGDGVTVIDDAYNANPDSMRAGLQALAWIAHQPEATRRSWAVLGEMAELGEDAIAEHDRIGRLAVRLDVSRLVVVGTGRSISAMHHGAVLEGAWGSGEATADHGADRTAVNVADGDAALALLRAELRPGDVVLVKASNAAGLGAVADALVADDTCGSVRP
MurC, sequence (P9WJL7 whole entry): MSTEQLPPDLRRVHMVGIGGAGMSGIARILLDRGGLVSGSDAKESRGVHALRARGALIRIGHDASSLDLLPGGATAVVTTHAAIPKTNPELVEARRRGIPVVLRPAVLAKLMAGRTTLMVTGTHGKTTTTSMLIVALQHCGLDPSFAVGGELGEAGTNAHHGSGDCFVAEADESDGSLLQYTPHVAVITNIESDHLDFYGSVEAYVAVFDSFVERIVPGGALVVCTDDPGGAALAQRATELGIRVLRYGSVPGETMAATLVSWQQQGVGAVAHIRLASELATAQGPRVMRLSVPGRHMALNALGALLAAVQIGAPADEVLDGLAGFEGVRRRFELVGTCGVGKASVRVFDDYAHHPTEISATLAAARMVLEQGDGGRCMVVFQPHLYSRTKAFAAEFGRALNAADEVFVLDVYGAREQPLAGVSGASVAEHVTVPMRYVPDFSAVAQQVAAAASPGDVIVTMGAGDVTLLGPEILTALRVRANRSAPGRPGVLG
MurE, sequence (P9WJL3 whole entry): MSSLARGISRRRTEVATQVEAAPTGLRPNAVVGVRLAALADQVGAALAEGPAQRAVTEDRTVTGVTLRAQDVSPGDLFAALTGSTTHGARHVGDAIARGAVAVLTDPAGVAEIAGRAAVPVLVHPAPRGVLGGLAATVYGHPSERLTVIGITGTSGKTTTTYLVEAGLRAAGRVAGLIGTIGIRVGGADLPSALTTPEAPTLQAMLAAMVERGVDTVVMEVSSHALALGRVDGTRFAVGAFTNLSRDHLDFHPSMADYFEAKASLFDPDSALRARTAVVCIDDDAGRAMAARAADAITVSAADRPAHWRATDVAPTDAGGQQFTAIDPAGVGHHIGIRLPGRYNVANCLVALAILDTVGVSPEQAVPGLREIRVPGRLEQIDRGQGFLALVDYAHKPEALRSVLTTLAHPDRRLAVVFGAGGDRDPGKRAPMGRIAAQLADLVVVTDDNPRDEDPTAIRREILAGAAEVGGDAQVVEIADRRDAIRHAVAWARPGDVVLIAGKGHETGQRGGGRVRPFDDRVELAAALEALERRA
MurA, sequence (P9WJM1 whole entry): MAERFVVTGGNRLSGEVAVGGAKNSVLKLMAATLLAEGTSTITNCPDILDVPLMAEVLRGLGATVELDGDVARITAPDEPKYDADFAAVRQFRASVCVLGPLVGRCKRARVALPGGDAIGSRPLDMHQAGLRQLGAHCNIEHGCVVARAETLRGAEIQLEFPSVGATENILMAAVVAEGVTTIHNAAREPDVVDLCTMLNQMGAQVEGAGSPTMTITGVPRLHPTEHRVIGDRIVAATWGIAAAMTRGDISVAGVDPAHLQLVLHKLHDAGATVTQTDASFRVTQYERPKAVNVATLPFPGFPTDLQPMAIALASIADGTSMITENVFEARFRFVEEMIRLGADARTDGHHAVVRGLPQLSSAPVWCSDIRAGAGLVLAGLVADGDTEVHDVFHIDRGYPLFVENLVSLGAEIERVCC
MurB, sequence (P9WJL9 whole entry): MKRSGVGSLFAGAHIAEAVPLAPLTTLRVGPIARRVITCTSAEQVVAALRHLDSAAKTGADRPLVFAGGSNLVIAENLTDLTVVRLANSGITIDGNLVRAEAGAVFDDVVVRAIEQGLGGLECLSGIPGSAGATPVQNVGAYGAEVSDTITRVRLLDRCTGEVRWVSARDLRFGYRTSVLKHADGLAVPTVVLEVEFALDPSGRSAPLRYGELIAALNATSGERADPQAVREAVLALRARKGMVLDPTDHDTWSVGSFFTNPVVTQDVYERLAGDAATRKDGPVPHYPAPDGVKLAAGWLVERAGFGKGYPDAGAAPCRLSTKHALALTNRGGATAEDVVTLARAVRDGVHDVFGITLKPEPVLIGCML

Compound | inhibition of MurB (in words) (MurB) | remaining activity at 100 µM (MurB) [%] | inhibition of MurA (in words) (MurA) | remaining activity at 100 µM (MurA) [%] | IC50 (MurE) [µM] | IC50 (MurF) [µM] | inhibition of MurD (in words) (MurD) | remaining activity at 100 µM (MurD) [%] | IC50 (MurE from E.coli) [µM] | inhibition of MurC (in words) (MurC) | remaining activity at 100 µM (MurC) [%] | Percentage inhibition, one-pot assay [1] [%] | IC50 [1] [µM] | IC50 (MurE; six compound concentrations 5-100 μM, read-out: IC50, MurE) [µM] | final product (UDP-MurNAc pentapeptide) formation in one-pot assay by ESI-MS [2] | Km (C=C(OP(=O)(O)O)C(=O)O) [µM] | Vmax (C=C(OP(=O)(O)O)C(=O)O) [µM/min]
O=C(O)c1cc(-c2ccc(/C=C3/SC(=S)N(c4ccc([N+](=O)[O-])cc4)C3=O)o2)ccc1Cl [Compound 3] | no inhibition | > 100 | marginal inhibition | 75 | 61.6 | 45.4 | marginal inhibition | 88 | 11 to 16 | marginal inhibition | 66 | 97 | 19.6 | – | – | – | –
O=C(O)c1cc(-c2ccc(/C=C3/SC(=S)N(c4cccc([N+](=O)[O-])c4)C3=O)o2)ccc1Cl [Compound 4] | did not inhibit | > 100 | did not inhibit | > 100 | 17 | 25.8 | marginal inhibition | 85 | 11 to 16 | marginal inhibition | 73 | 93 | 8.25 | – | – | – | –
N[C@@H]1CON=C1O [D-Cycloserine, reference compound] | – | > 100 | – | > 100 | – | 67.1 | – | 72 | – | – | 64 | – | 74 | 97 | inhibition of final product formation | – | –
Mtb MurA (Mycobacterium tuberculosis H37Rv) | – | – | – | – | – | – | – | – | – | – | – | – | – | – | – | 527.8 | 0.173
